# Data taken from patent US20230181540A1, “COMPOSITIONS AND METHODS FOR ACTIVATING SIGNALING THROUGH THE CB2 CANNABINOID RECEPTOR FOR TREATING AND PREVENTING LYSOSOMAL STORAGE DISEASES AND DISORDERS” (Wylder Nation Foundation, priority 2020, published 2023).
# “Also recorded” adds a separate entry of the source.
# Assays:
# [1] = system: mouse model of Niemann-Pick diseases type C1 (NPC1); conditions: cited from earlier work
# MCP-1 [2] = test: MCP-1 released into culture media by skin fibroblasts from a patient with MPS IIIA (ELISA); format: cell-based, human; conditions: 3.2 micromoles/ml, 72 or 96 hr, vs cultures without drug, p < 0.01
# Procedure: Skin fibroblasts from a patient with MPS IIIA were grown to ~70% confluency and the CB2 agonists JHW133 and PM226 were added to the culture media for 72 or 96 hr at a dose of 3.2 micromoles/ml (black and gray bars, respectively). Control: cultures without drug added (white bars). […] Bar heights indicate the mean values from three independent experiments. Vertical lines indicate the standard error of the mean. * = p < 0.01 comparing with and without drug.
# CB2 = test: Immunohistochemical analysis of CB2 expression in organs of Farber disease mice; format: in vivo, mouse; conditions: 5 mg/kg i.p. 3x a week for 6 weeks, 8.5-week-old, vs untreated Farber mice
# Procedure: Ten 2.5-week-old Farber disease mice were treated once weekly with recombinant acid ceramidase by intraperitoneal injection at a dose of 10 mg/kg. After 6 injections the 8.5-week-old mice were euthanized and their organs collected and processed for immunohistochemical analysis of CB2 expression. […] Thus, CB2 can be used as a biomarker to monitor the efficacy of treatment for Farber disease and other lysosomal storage disorders.
# (§1) Ten 2.5-week-old Farber disease mice were treated 3x a week by intraperitoneal injection of JWH133 at a dose of 5 mg/kg. After 6 weeks the 8.5-week-old mice were euthanized and their organs collected and processed for immunohistochemical analysis of CB2 expression. […] Thus, CB2 agonists, such as JWH133, can be used to treat Farber disease and other lysosomal storage disorders.
# Farber mice = test: Survival and body weight of Farber mice treated with CB2 agonist
# Procedure: Two Farber mouse groups were studied (n=12 mice per group). […] In the control group they were injected with DMSO alone. Weight was monitored daily.
# MCP-1 [3] = test: MCP-1 expression in liver and plasma of Farber disease mice; format: in vivo, mouse; conditions: 5 mg/kg i.p. 3x a week for 6 weeks, vs untreated Farber mice
# Procedure: as §1, with “organs and plasma” for “organs”, “of MCP-1” for “of CB2”, “storage disorders (* = p<0.01).” for “storage disorders.”
# [4] = system: mouse model of Sanfilippo disease (mucopolysaccharidosis IIIA); conditions: cited from earlier work
compound,measurement,setting,value
CC(C)Cc1ccc(C(C)C(=O)O)cc1 (centres unmarked) [ibuprofen],lifespan,[1]; high doses,prolong the lifespan of the mice by about two weeks
same,onset of clinical signs,[1]; high doses,modestly slow the onset of clinical signs
CCCC(C)(C)c1ccc2c(c1)OC(C)(C)[C@@H]1CC=C(C)C[C@@H]21 [JWH133],levels of MCP-1 released into the culture media,MCP-1 [2],able to reduce the levels of MCP-1 released into the culture media
same,CB2 expression (immunohistochemistry),CB2,significantly reduced
same,day of natural death in the treatment group,"Farber mice; Farber mice, 5 mg/kg i.p. three times a week from 2 weeks of age",47 days
same,survival / life span,"Farber mice; Farber mice, 5 mg/kg i.p. three times a week in DMSO from 2 weeks of age, vs vehicle control (all dead by day 44)",survived longer than vehicle control treated mice
same,body weight,"Farber mice; Farber mice, 5 mg/kg i.p. three times a week, throughout the study, vs vehicle alone, 5 mg/kg",significantly greater; also recorded: significant prevention of weight loss
same,number of mice that died naturally in the treatment group,"Farber mice; of 12 Farber mice, 5 mg/kg i.p. three times a week, remaining 11 euthanized at day 58",1
same,MCP-1 expression in the liver,MCP-1 [3],significantly reduced
same,MCP-1 expression in plasma,MCP-1 [3]; p<0.01,significantly reduced
CC(=O)Oc1ccccc1C(=O)O [aspirin],expression of inflammation-related genes,[4]; chronic treatment for 6 months with high doses,normalize expression of some inflammation-related genes
same,treatment efficacy,[1],failed to show treatment efficacy
CCCCCCC(C)(C)c1cc(OC)c2c(c1)OC(C)(C)c1cnoc1-2 [PM226],levels of MCP-1 released into the culture media,MCP-1 [2],able to reduce the levels of MCP-1 released into the culture media
pentosan polysulfate [PPS],CNS pathology,"[4]; mouse model of MPS IIIA, attributed to systemic effects",some improvements in CNS pathology were noted
